Measurements published in PMC5874133 (Science immunology, 2018).

Tested on: ZnT8_186–194-reactive CD8^+ T-cell clones
Type: cell-based, human
Settings: MMr co-staining (Fig. 7D) and in-vitro recall (Fig. 7E); clones D222D 2, D349D 178B9, H017N A1, H328C 9C8

KAANIVLTV [B. stercoris mimotope]
ZnT8_186–194-reactive clones cross-recognizing the mimotope: 1 of 4
